Assays:
BTK = molecular target: T1, BTK (Homo sapiens, UniProt Q06187); assay: In vitro BTK kinase assay: BTK-POLYGAT-LS assay; assay type: biochemical; conditions: ATP 10 uM, polyGAT 100 nM, BTK 0.25 nM, 30 minutes; read-out: IC50 against BTK (polyGAT assay)
T1 construct: purchased Upstate 14-552
Method: In vitro BTK kinase assay: BTK-POLYGAT-LS ASSAY. The purpose of the BTK in vitro assay was to determine compound potency against BTK through the measurement of IC50. Compound inhibition was measured after monitoring the amount of phosphorylation of a fluorescein-labeled polyGAT peptide (Invitrogen PV3611) in the presence of active BTK enzyme (Upstate 14-552), ATP, and inhibitor. The BTK kinase reaction was done in a black 96 well plate (costar 3694). For a typical assay, a 24 uL aliquot of an ATP/peptide master mix (final concentration; ATP 10 uM, polyGAT 100 nM) in kinase buffer (10 mM Tris-HCl pH 7.5, 10 mM MgCl2, 200 uM […], 5 mM DTT, 0.01% Triton X-100, and 0.2 mg/ml casein) was added to each well. Next, 1 uL of a 4-fold, 40× compound titration in 100% DMSO solvent was added, followed by adding 15 uL of BTK enzyme mix in 1× kinase buffer (with a final concentration of 0.25 nM). The assay was incubated for 30 minutes before being stopped with 28 uL of a 50 mM EDTA solution. Aliquots (5 uL) of the kinase reaction were transferred to a low volume white 384 well plate (Corning 3674), and 5 uL of a 2× detection buffer (Invitrogen PV3574, with 4 nM Tb-PY20 antibody, Invitrogen PV3552) was added. The plate was covered and incubated for 45 minutes at room temperature. Time resolved fluorescence (TRF) on Molecular Devices M5 (332 nm excitation; 488 nm emission; 518 nm fluorescein emission) was measured. IC50 values were calculated using a four parameter fit with 100% enzyme activity determined from the DMSO control and 0% activity from the EDTA control.

human PXR = molecular target: T2, human PXR (Homo sapiens, UniProt O75469); assay: PXR nuclear receptor activation reporter gene assay in human DPX2 cells; assay type: cell-based; conditions: 24 hr treatment
T2 construct: expressed in transfected cells; host or cells: DPX2 tumor cell line
T2 sequence (O75469 1-434): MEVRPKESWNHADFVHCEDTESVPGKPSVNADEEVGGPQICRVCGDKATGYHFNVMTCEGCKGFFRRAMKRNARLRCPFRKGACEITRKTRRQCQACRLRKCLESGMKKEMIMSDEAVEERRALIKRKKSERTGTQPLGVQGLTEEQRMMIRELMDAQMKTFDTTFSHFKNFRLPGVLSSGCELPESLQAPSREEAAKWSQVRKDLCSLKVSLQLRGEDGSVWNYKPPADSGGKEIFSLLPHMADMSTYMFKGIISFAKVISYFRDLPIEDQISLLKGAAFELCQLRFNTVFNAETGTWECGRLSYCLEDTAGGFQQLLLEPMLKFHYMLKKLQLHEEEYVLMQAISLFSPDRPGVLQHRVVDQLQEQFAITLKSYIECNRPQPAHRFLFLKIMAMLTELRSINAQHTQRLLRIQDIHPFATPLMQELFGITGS
Excerpt: Study Protocol to Determine Activation of the PXR Nuclear Receptor in Human DPX2 Cells
Based on this pathway of CYP3A4 induction, cell-based PXR reporter gene assay is commonly used to screen new molecular entities (NMEs) in early drug discovery stage, for their potential to induce CYP3A4 (Luo G, et al.; Drug Metab Dispos. 2002 July; 30(7):795-804.) Studies were designed to evaluate the effect of new molecular entities (NMEs) on the activation of human PXR in DPX2 cells. Cell lines stably transfected with the PXR nuclear receptor and corresponding response elements were seeded into 96-well plates. Twenty-four hr after seeding, cells were treated with 6 distinct concentrations of NMEs in triplicate wells (see below), and cells then returned to the incubator for an additional 24 hr. At the end of this incubation period, the number of viable cells/well were determined using Promega's Cell Titer Fluor cytotoxicity assay. Following this assay, Promega's ONE-Glo was added to the same wells and reporter gene activity assessed.
The test system consisted of the stably transformed DPX2 tumor cell line plated on 96-well microtiter plates. An expression vector harboring the PXR nuclear receptor plus the appropriate enhancers and promoters linked to the luciferase reporter gene have been stably integrated into these tumor cell lines. Receptor activation was assessed by monitoring reporter gene activity, and by comparing the results to vehicle-treated cells. Positive controls consist of cells treated with 6 different concentrations (0.1, 0.5, 1, 5, 10, and 20 μM) of rifampicin. In this manner, compounds activating PXR can be easily and rapidly identified. Since stably-integrated cell lines were used, it is possible to observe from 3- to 70-fold receptor activation.
Data processed using MS-Excel was calculated as the mean (n=3) and % CV of the fold PXR activation relative to vehicle-treated cells at each of the 6 different doses. All activation data was normalized to the number of viable cells/well. Results were also expressed as a percentage of the response given by the appropriate positive control at a 10 μM dose. EC50 and Emax values were derived for test compounds that give receptor activation using nonlinear regression of typical log dose-response curves (Prism V5.0c, GraphPad Software, San Diego, Calif.).
d) New Molecular Entities (NMEs): Test Compounds were Tested at 0.05, 0.1, 0.5, 1, 2.5, and 10 μM

[1] = molecular target: T3, hERG (human ether-à-go-go-related gene) potassium channel (Homo sapiens, UniProt Q12809); assay: FastPatch hERG inhibition assay (QPatch HT, HEK293 cells stably transfected with hERG cDNA); assay type: cell-based; conditions: for IC50: HEK293 cells, automated patch clamp, IC50 estimated from hERG inhibition data
T3 construct: host or cells: HEK293
T3 sequence (Q12809 whole entry): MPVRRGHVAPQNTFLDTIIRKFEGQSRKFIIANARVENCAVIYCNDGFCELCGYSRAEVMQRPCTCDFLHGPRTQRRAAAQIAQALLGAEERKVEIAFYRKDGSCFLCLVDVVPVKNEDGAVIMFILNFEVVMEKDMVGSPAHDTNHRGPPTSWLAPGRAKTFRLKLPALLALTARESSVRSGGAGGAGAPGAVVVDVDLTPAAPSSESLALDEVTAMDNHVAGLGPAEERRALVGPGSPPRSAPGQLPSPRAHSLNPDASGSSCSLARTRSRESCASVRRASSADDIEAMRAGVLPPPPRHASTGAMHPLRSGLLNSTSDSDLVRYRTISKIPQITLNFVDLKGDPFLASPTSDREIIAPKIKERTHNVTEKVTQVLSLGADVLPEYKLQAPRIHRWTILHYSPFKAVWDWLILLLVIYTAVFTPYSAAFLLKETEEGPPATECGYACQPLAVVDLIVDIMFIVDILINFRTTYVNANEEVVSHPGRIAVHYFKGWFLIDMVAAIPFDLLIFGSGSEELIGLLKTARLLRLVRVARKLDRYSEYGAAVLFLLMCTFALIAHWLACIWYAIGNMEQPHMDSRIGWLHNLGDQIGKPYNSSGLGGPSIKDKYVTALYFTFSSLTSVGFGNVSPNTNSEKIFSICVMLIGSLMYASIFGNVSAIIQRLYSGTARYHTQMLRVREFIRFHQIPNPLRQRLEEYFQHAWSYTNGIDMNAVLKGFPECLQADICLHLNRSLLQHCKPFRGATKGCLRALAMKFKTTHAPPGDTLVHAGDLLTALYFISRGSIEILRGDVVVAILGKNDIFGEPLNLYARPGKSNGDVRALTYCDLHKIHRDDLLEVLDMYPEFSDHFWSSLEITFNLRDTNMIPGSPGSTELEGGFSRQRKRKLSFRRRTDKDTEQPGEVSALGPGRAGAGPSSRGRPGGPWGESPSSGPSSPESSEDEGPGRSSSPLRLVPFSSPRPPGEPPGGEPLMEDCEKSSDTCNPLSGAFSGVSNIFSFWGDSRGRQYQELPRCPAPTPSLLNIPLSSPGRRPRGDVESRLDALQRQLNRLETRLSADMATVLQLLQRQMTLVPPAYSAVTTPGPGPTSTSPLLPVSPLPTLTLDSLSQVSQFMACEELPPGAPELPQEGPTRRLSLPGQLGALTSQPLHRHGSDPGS
Excerpt: (§1) Protocol for FastPatch hERG Inhibition Assay:
(§2) The cardiac potassium channel, hERG, is responsible for a rapid delayed rectifier current (IKr) in human ventricle and inhibition of IKr is the most common cause of cardiac action potential prolongation by non-cardiac drugs (see, e.g., Weirich and Antoni, Basic Res. Cardiol., 93, Suppl. 1, 125-32, 1998; Yap and Camm, Clin. Exp. Allergy, 29, Suppl. 3, 174-81, 1999). Increased action potential duration has been cited as a factor in causing prolongation of the QT interval that has been associated with a dangerous ventricular arrhythmia, torsade de pointes (Brown and Rampe, Pharmaceutical News, 7, 15-20, 2000).
(§3) The in vitro effects of provided compounds was investigated on the hERG (human ether-à-go-go-related gene) potassium channel current (a surrogate for IKr, the rapidly activating, delayed rectifier cardiac potassium current) expressed in human embryonic kidney (HEK293) cells stably transfected with hERG cDNA. Cells were placed in HEPES-buffered physiological saline solution in a glass-lined 96-well plate and loaded with appropriate amounts of test and control solutions for a duration of a 3-minute exposure at each concentration. Test compound was diluted in 0.3% DMSO. An automated parallel patch clamp system, QPatch HT (Sophion Bioscience A/S, Denmark), was used to evaluate at various concentrations (e.g., 10 μM). The IC50 values was estimated based on the hERG inhibition data. The study was performed at ChanTest (14656 Neo Parkway, Cleveland, Ohio). The QPatch screen is further described by Janzen and Bernasconi (eds.), High Throughput Screening, Methods and Protocols, Second Edition, vol. 565, chapter 10, pg. 209-223, 2009.

hERG potassium channel = molecular target: T4, hERG potassium channel (Homo sapiens, UniProt Q12809); assay: as above; assay type: cell-based; conditions: human, HEK293 cells stably transfected with hERG cDNA; 10 uM, HEK293 cells, automated patch clamp
T4 construct: host or cells: HEK293
T4 sequence (Q12809 whole entry): as above
Excerpt: as §1, §2, §3

T1 sequence (Q06187 whole entry): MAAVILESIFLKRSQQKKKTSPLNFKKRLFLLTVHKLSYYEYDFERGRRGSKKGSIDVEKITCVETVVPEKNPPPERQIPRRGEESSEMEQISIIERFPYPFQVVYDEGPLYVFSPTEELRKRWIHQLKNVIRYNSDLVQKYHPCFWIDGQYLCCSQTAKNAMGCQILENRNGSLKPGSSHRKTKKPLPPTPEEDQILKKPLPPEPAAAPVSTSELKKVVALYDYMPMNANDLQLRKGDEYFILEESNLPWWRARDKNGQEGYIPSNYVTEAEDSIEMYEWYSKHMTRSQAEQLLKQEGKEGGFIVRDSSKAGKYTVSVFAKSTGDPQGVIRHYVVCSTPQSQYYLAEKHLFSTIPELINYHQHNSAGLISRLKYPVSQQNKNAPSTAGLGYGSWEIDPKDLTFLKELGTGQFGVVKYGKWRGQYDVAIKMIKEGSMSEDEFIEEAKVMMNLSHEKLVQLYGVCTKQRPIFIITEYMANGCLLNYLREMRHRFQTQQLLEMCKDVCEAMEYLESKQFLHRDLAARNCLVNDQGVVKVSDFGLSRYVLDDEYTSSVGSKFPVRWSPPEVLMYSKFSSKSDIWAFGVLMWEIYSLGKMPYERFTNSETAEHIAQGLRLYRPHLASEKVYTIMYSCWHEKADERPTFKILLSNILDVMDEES

| IC50 (BTK) | PXR % induction (relative to 10 uM rifampin) (human PXR) | SMILES | IC50 [1] | observable activity in the hERG assay at 10 uM ([1]; 10 uM, no IC50 available) | inhibition at 3 min, 10 µM (hERG potassium channel) |
| --- | --- | --- | --- | --- | --- |
| 0.73 nM | 62% | NC(=O)[C@H]1CCN(c2ncnc(N)c2F)C[C@@H]1N1CCC[C@@H](Nc2cc(Cl)cc(C(F)(F)F)c2)C1=O [Compound I-1, (3R,3′R,4′S)-1′-(6-amino-5-fluoropyrimidin-4-yl)-3-((3-chloro-5-(trifluoromethyl)phenyl)amino)-2-oxo-[1,3′-bipiperidine]-4′-carboxamide] | 15600 nM |  |  |
| 0.68 nM | 42% | NC(=O)[C@H]1CCN(c2ncnc(N)c2F)C[C@@H]1N1CCC[C@@H](Nc2cc(F)cc(Cl)c2)C1=O [Compound I-2] | 30000 nM |  |  |
| 2.07 nM | 47% | CN(C)C(=O)[C@H]1CCN(c2ncnc(N)c2F)C[C@@H]1N1CCC[C@@H](Nc2cc(Cl)cc(C(F)(F)F)c2)C1=O [Compound I-3, (3R,3′R,4′S)-1′-(6-amino-5-fluoropyrimidin-4-yl)-3-((3-chloro-5-(trifluoromethyl)phenyl)amino)-N,N-dimethyl-2-oxo-[1,3′-bipiperidine]-4′-carboxamide] | 14600 nM |  |  |
| 0.63 nM | 67% | CNC(=O)[C@H]1CCN(c2ncnc(N)c2F)C[C@@H]1N1CCC[C@@H](Nc2cc(Cl)cc(C(F)(F)F)c2)C1=O [Compound I-4] | 13700 nM |  |  |
| 1.6 nM | 90% | NC(=O)[C@H]1CCN(c2ncnc(N)c2F)C[C@@H]1N1CCC[C@@H](Nc2cc(F)cc(C(F)(F)F)c2)C1=O [Compound I-5, (3R,3′R,4′S)-1′-(6-amino-5-fluoropyrimidin-4-yl)-3-((3-fluoro-5-(trifluoromethyl)phenyl)amino)-2-oxo-[1,3′-bipiperidine]-4′-carboxamide] |  | no observable activity |  |
| < 1 nM |  | NC(=O)[C@H]1CCN(c2ncnc(N)c2F)C[C@@H]1N1CCC[C@@H](Nc2cc(Cl)cc(OC(F)(F)F)c2)C1=O [Compound I-6] |  |  | < 20% |
| 1.2 nM |  | CN1CCN(C(=O)[C@H]2CCN(c3ncnc(N)c3F)C[C@@H]2N2CCC[C@@H](Nc3cc(Cl)cc(C(F)(F)F)c3)C2=O)CC1 [Compound I-7] |  |  | 65% |
| 2 nM | 95% | Nc1ncnc(N2CCC[C@@H](N3CCC[C@@H](Nc4cc(Cl)cc(C(F)(F)F)c4)C3=O)C2)c1F [I^C, reference compound] | 1180 nM |  | 87% |
